From ChEMBL document CHEMBL5338807, “Design and Synthesis of Bouchardatine Derivatives as a Novel AMP-Activated Protein Kinase Activator for the Treatment of Colorectal Cancer” (J Med Chem, 2023)
Calls of active or inactive are those of the source. The calls are words filed in the database; no cut-off is given here.

Columns and labels:
Format in all cases: functional, cell-based
RKO [1] = assay: Antiproliferative activity against human RKO cells assessed as reduction in cell viability incubated for 24 hrs
RKO [2] = assay: Antiproliferative activity against human RKO cells assessed as inhibition of colony formation at 1 uM measured after 7 days by crystal violet staining based assay; settings: time 7.0 day
RKO [3] = assay: Inhibition of cell migration of human RKO cells at 1 uM incubated for 48 hrs by wound healing assay
RKO [4] = assay: Effect on metabolism in human RKO cells assessed as activation of oxidative phosphorylation at 1 uM measured after 24 hrs by seahorse analysis
RKO [5] = assay: Effect on metabolism in human RKO cells assessed as inhibition of oxidative phosphorylation at 50 mM measured after 24 hrs by seahorse analysis
RKO [6] = assay: Effect on energy metabolism in human RKO cells assessed as decrease in ATP production incubated for 24 hrs by luminescence based analysis

SMILES	IC50 (RKO [1]) [µM]	other results
O=Cc1c(-c2nc(NCCNC(=O)C3CC3)c3ccccc3n2)[nH]c2ccccc12	1.2	
COc1ccc2[nH]c(-c3nc(NCCN4CCCC4)c4ccccc4n3)c(C=O)c2c1	1.6	
CN(C)CCNc1nc(-c2[nH]c3ccc(Cl)cc3c2C=O)nc2ccccc12	5.3	
Cc1ccc2[nH]c(-c3nc(NCCN4CCCC4)c4ccccc4n3)c(C=O)c2c1	0.7	inhibition (RKO [2]): Active; inhibition (RKO [3]): Active; Activity (RKO [4]): Active
CCCS(=O)(=O)Nc1nc(-c2[nH]c3ccccc3c2C=O)nc2ccccc12	> 10	
O=Cc1c(-c2nc(Nc3ccc(N4CCCCC4)cc3)c3ccccc3n2)[nH]c2ccccc12	> 10	
CN(C)CC(C)(C)CNc1nc(-c2[nH]c3ccccc3c2C=O)nc2ccccc12	5.3	
CC(=O)c1c(-c2nc(NCCN(C)C)c3ccccc3n2)[nH]c2ccccc12	> 10	
O=Cc1c(-c2nc(NCCCC(F)(F)F)c3ccccc3n2)[nH]c2ccccc12	4.6	
O=Cc1c(-c2nc(NC(C3CC3)C3CC3)c3ccccc3n2)[nH]c2ccccc12	6	
CC(C)(C)OC(=O)NCCCNc1nc(-c2[nH]c3ccccc3c2C=O)nc2ccccc12	5.4	
CN(C)C(=N)NC(=N)N		inhibition (RKO [5]): Active; Activity (RKO [6]): Active
CN(C)CCCNc1nc(-c2[nH]c3ccc(F)cc3c2C=O)nc2ccccc12	1.9	
Cc1c(-c2nc(N(C)CCCN(C)C)c3ccccc3n2)[nH]c2ccccc12	> 10	
COCCCNc1nc(-c2[nH]c3ccccc3c2C=O)nc2ccccc12	1.1	
O=Cc1c(-c2nc(NC34CC5CC(CC(C5)C3)C4)c3ccccc3n2)[nH]c2ccccc12	> 10	
O=Cc1c(-c2nc(NCCc3ccc(C(F)(F)F)cc3)c3ccccc3n2)[nH]c2ccccc12	4.2	
Cc1ccc2[nH]c(-c3nc(NCCN(C)C)c4ccccc4n3)c(C=O)c2c1	0.7	
O=Cc1c(-c2nc(NC(=O)c3cccnc3)c3ccccc3n2)[nH]c2ccccc12	> 10	
O=Cc1c(-c2nc(NCCc3ccccc3)c3ccccc3n2)[nH]c2ccccc12	0.8	inhibition (RKO [2]): Active; inhibition (RKO [3]): Active; Activity (RKO [4]): inactive
CN(C)CCCNc1nc(-c2[nH]c3ccccc3c2C(=O)O)nc2ccccc12	5.3	
CC(=O)c1c(-c2nc(NCCCN(C)C)c3ccccc3n2)[nH]c2ccccc12	> 10	
O=Cc1c(-c2nc(NC3CC3)c3ccccc3n2)[nH]c2ccccc12	3.9	
O=Cc1c(-c2nc(NCCCC(=O)O)c3ccccc3n2)[nH]c2ccccc12	> 10	
COC(=O)c1c(-c2nc(NCCN3CCCC3)c3ccccc3n2)[nH]c2ccccc12	6.1	
CCN1CCC[C@H]1CNc1nc(-c2[nH]c3ccccc3c2C=O)nc2ccccc12	0.9	inhibition (RKO [2]): Active; inhibition (RKO [3]): Active; Activity (RKO [4]): Active
O=Cc1c(-c2nc(NCC3CC3)c3ccccc3n2)[nH]c2ccccc12	4.8	
